Experimental data taken from ChEMBL document CHEMBL4673399, “Sigma-1 and Sigma-2 Receptor Modulators as Potential Therapeutics for Alzheimer's Disease” (ACS Med Chem Lett, 2021).

target: Sigma non-opioid intracellular receptor 1 (Homo sapiens, UniProt Q99720); assay: Binding affinity to sigma 1 receptor (unknown origin)
Sequence (Q99720 whole entry): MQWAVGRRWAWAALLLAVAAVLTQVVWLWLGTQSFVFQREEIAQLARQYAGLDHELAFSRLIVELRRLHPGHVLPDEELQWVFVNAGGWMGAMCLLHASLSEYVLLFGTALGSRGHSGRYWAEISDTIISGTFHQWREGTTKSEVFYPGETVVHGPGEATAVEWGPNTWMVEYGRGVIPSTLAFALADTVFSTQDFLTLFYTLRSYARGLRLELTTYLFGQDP

Ki [nM]	Compound
< 1000	N#Cc1ccc(CCNC2CCc3c(c(C(=O)N4CCCCC4)nn3-c3ccccc3)C2)cc1 (stereo not given)
1000	O=C1NCCn2nc3c(c21)CC(NCCc1ccc2c(c1)OCO2)CC3 (stereo not given)
< 1000	O=C(c1nn(-c2ccccc2)c2c1CC(NCC1CCOCC1)CC2)N1CCCCC1 (stereo not given)
< 1000	CCCn1nc(C(=O)N2CCCCC2)c2c1CCN(CCc1ccc(F)cc1)C2
1000	N#Cc1ccc(CCNC2CCc3nn4c(c3C2)C(=O)NCCC4)cc1 (stereo not given)
1000	CCCn1nc(C(=O)N2CCCCC2)c2c1CCN(CCc1cccc(C(F)(F)F)c1)C2
1000	O=C(c1nn(-c2ccccc2)c2c1CC(NCCc1ncc[nH]1)CC2)N1CCCCC1 (stereo not given)
1000	O=C(c1nn(-c2ccccc2)c2c1CC(N1CCc3ccccc3C1)CC2)N1CCCCC1 (stereo not given)
1000	CCCn1nc(C(=O)Nc2cccc(OC)c2)c2c1CCC(NCCc1ccncc1)C2 (stereo not given)
1000	CN1CCn2nc3c(c2C1=O)CC(NCc1ccc(F)cc1)CC3 (stereo not given)

target: Sigma intracellular receptor 2 (Homo sapiens, UniProt Q5BJF2); assay: Binding affinity to sigma 2 receptor (unknown origin)
Sequence (Q5BJF2 whole entry): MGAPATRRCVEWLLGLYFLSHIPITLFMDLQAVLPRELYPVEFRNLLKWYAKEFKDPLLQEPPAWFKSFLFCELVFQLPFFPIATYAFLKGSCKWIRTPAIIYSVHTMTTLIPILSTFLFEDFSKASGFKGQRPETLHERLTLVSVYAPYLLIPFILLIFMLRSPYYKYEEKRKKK

Ki [nM]	Compound
< 1000	N#Cc1ccc(CCNC2CCc3c(c(C(=O)N4CCCCC4)nn3-c3ccccc3)C2)cc1 (stereo not given)
1000	O=C1NCCn2nc3c(c21)CC(NCCc1ccc2c(c1)OCO2)CC3 (stereo not given)
< 1000	O=C(c1nn(-c2ccccc2)c2c1CC(NCC1CCOCC1)CC2)N1CCCCC1 (stereo not given)
1000	CCCn1nc(C(=O)N2CCCCC2)c2c1CCN(CCc1ccc(F)cc1)C2
< 1000	N#Cc1ccc(CCNC2CCc3nn4c(c3C2)C(=O)NCCC4)cc1 (stereo not given)
< 1000	CCCn1nc(C(=O)N2CCCCC2)c2c1CCN(CCc1cccc(C(F)(F)F)c1)C2
< 1000	O=C(c1nn(-c2ccccc2)c2c1CC(NCCc1ncc[nH]1)CC2)N1CCCCC1 (stereo not given)
1000	O=C(c1nn(-c2ccccc2)c2c1CC(N1CCc3ccccc3C1)CC2)N1CCCCC1 (stereo not given)
< 1000	CCCn1nc(C(=O)Nc2cccc(OC)c2)c2c1CCC(NCCc1ccncc1)C2 (stereo not given)
1000	CN1CCn2nc3c(c2C1=O)CC(NCc1ccc(F)cc1)CC3 (stereo not given)
